Experimental data taken from patent US20150050677A1, “METHODS AND SYSTEMS FOR MEASURING WHOLE BLOOD PLATELET REACTIVITY” (University of Massachusetts Medical School, priority 2013, published 2015).
Like-named read-outs stand apart in the source and are kept apart here.

Assays:
[1] = system: ADP-induced platelet aggregation; conditions: P<0.0001
Procedure: After collection of baseline blood samples but prior to coronary angiography, subjects were administered a loading dose of 300-600 mg clopidogrel. Percutaneous coronary intervention (PCI) was performed at the same time on an ad hoc basis at the discretion of the treating physician. Patients were excluded from further analysis if a glycoprotein IIb/IIIa antagonist was used during PCI.
Blood samples were collected at baseline, prior to clopidogrel administration, and 6-24 hours later, after the catheterization procedure. After discarding the first 10 ml, blood was collected into siliconized glass vacutainers containing 3.2% sodium citrate (for platelet function testing and measurement of fibrinogen and vonWillebrand factor antigen) or EDTA-containing vacutainers (for complete blood counts). The samples were maintained at room temperature and hand-delivered to the laboratory where platelet function analyses were performed within 60 minutes of collection. Aliquots of centrifuged platelet-poor plasma and serum were stored at −70° C. until batch analyzed.
Citrated blood was centrifuged to obtain platelet-rich plasma (PRP) and adjusted to a final platelet count of 180,000 mm^−3 as previously described. […]

[2] = system: platelet reactivity (PRU); conditions: PRU≧235; of the 1213 patients in the assay-guided group; cited from earlier work
[3] = system: ADP-induced platelet aggregation; conditions: for Number of subjects with clopidogrel HTPR by original PRU: post-clopidogrel
[4] = system: platelet reactivity (PRU); conditions: PRU value >208; of the 3283 patients screened; cited from earlier work
[5] = system: maximal platelet reactivity (iso-TRAP-induced platelet activation); conditions: 6-24 hours after 300-600 mg clopidogrel loading; pre-clopidogrel 279±47; p<0.0001; mean±SD

What does the source list for `COC(=O)[C@H](c1ccccc1Cl)N1CCc2sccc2C1` [clopidogrel]?
median aggregation by WBA after clopidogrel loading ([1]; 10 μM ADP, fell from 16 (IQR;11,24)): 4 (IQR; 0,12) ohms; median aggregation by LTA after clopidogrel loading ([1]; 20 μM ADP, fell from 84 (IQR;71, 94)): 52 (IQR;37,70) percent; patients with clopidogrel HTPR [2]: 419 (35%) patients (%); mean VerifyNow PRU following clopidogrel loading ([3]; 6-24 hours after 300-600 mg clopidogrel loading, pre-clopidogrel 287±56, p<0.0001, mean±SD): 179±90 PRU; Number of subjects with clopidogrel HTPR by Corrected PRU ([3]; PRU threshold ≧178, PRU corrected for hematocrit (7.5 PRU per percent around 42%)): 46 (48%) subjects (%); Number of subjects with clopidogrel HTPR by original PRU ([3]; PRU threshold ≧178): 50 (51%) subjects (%); Number of subjects with clopidogrel HTPR by Corrected PRU ([3]; PRU threshold ≧208, PRU corrected for hematocrit): 33 (34%) subjects (%); Number of subjects with clopidogrel HTPR by original PRU ([3]; PRU threshold ≧208): 39 (40%) subjects (%); Number of subjects with clopidogrel HTPR by Corrected PRU ([3]; PRU threshold ≧230, PRU corrected for hematocrit): 21 (22%) subjects (%); Number of subjects with clopidogrel HTPR by original PRU ([3]; PRU threshold ≧230): 31 (32%) subjects (%); Number of subjects with clopidogrel HTPR by Corrected PRU ([3]; PRU threshold ≧235, PRU corrected for hematocrit): 19 (20%) subjects (%); Number of subjects with clopidogrel HTPR by original PRU ([3]; PRU threshold ≧235): 30 (31%) subjects (%); Number of subjects with clopidogrel HTPR by Corrected PRU ([3]; PRU threshold ≧236, PRU corrected for hematocrit): 18 (19%) subjects (%); Number of subjects with clopidogrel HTPR by original PRU ([3]; PRU threshold ≧236): 30 (31%) subjects (%); change in PRU following clopidogrel loading (mean PRU) ([3]; subjects with anemia): 106±89 PRU; change in PRU following clopidogrel loading (mean PRU) ([3]; subjects without anemia, p=0.96 vs anemia): 107±85 PRU; patients classified as having HTPR [4]: 625 patients; mean BASE following clopidogrel loading [5]: 298±53 Base units
